Assay results: PubChem BioAssay (NCI)
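Values below derive from 48-hour exposures of cells grown in 96-well plates, with endpoints linearly interpolated between the two concentrations bracketing the appropriate inhibition level. At the GI50, growth is halved. At the TGI there is no net growth.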 Where a SMILES comes first, the peptide text is derived from it. Bridges are numbered along the chain shown (N, C = ends). Roman numbers before positions name the chains, in order. [ ]: non-standard residue; d: D form. The star is where a group is joined. Quinoxaline2carbonyl = O=C(c1cnc2ccccc2n1)*; NMeV = CN[CH](C(=O)O)C(C)C; NMeC = CN[CH](CS)C(=O)O

Experiments:
Assay in all cases: growth of human tumour cells (NCI), 48 h
SF-295 CNS = system: SF-295 CNS
PC-3 prostate = system: PC-3 prostate
SW-620 colon = system: SW-620 colon
MOLT-4 leukemia = system: MOLT-4 leukemia
CAKI-1 renal = system: CAKI-1 renal
SNB-19 CNS = system: SNB-19 CNS
ACHN renal = system: ACHN renal
NCI-H23 lung = system: NCI-H23 lung
UO-31 renal = system: UO-31 renal
RXF 393 renal = system: RXF 393 renal

| SMILES | TGI (SF-295 CNS) [µM] | TGI (PC-3 prostate) [µM] | TGI (SW-620 colon) [µM] | TGI (MOLT-4 leukemia) [µM] | TGI (CAKI-1 renal) [µM] | TGI (SNB-19 CNS) [µM] | TGI (ACHN renal) [µM] | TGI (NCI-H23 lung) [µM] | TGI (UO-31 renal) [µM] | TGI (RXF 393 renal) [µM] | GI50 (SF-295 CNS) [µM] | GI50 (PC-3 prostate) [µM] | GI50 (SW-620 colon) [µM] | GI50 (MOLT-4 leukemia) [µM] | GI50 (CAKI-1 renal) [µM] | GI50 (SNB-19 CNS) [µM] | GI50 (ACHN renal) [µM] | GI50 (NCI-H23 lung) [µM] | GI50 (UO-31 renal) [µM] | GI50 (RXF 393 renal) [µM] |
| --- | --- | --- | --- | --- | --- | --- | --- | --- | --- | --- | --- | --- | --- | --- | --- | --- | --- | --- | --- | --- |
| CC1(C)OC2C(=O)C=C(COCc3ccccc3)C2O1 (stereo not given) | > 100 | > 100 | 52.2 | > 100 | > 100 | > 100 | > 100 | 59.4 | 50.1 | 45.8 | – | – | – | – | – | – | – | – | – | – |
| CCCCn1c(=O)c2c(nc3n2CCCN3CCc2ccc(OCC(=O)NCCN(CC)CC)cc2)n(CCCC)c1=O | 1.95 | 5.37 | 11.2 | 10.5 | 9.94 | 11.4 | 10.6 | 15.6 | 7.86 | 6.76 | 0.877 | 1.19 | 4.86 | 2.14 | 2.63 | 3.24 | 2.98 | 6.51 | 1.51 | 1.65 |
| COC12c3ccccc3-c3ccccc3C1[C@H]1C(=O)OC(=O)[C@H]12 (stereo not given in full) | > 10 | > 10 | > 10 | > 10 | > 10 | > 10 | > 10 | > 10 | > 10 | > 10 | – | – | – | – | – | – | – | – | – | – |
| COc1cc(/C=C/[N+](=O)[O-])cc(Br)c1OC | 9.88 | 13.2 | 3.37 | 53.6 | 5.23 | 19.2 | 6.49 | 5.28 | 3.49 | 3.01 | 2.64 | 3.5 | 1.57 | 3.52 | 1.89 | 6.93 | 2.5 | 2.06 | 1.86 | 1.61 |
| CCCCCn1sc(=O)n(Cc2ccc(CNC(=O)OCc3ccc4cccc(O)c4n3)cc2)c1=O | 20.1 | 2.76 | 2.83 | 45.2 | 2.17 | 16.7 | 2.47 | 3.59 | 2.25 | 2.67 | 6.73 | 1.22 | 1.25 | 3.02 | 0.935 | 4.44 | 1.23 | 1.67 | 1.07 | 1.37 |
| C[C@@H]1O[C@@H](O[C@H]2CC[C@@]3(C)[C@H](CCC4[C@@H]3C(O)C[C@]3(C)[C@@H](c5ccc(=O)oc5)CC[C@]43O)C2)[C@H](O)[C@H](O)[C@H]1O (stereo not given in full) | 0.0291 | 0.0296 | 0.0123 | – | 0.0154 | 0.0357 | 0.00803 | 0.00672 | 0.015 | 0.0194 | 0.00664 | 0.00462 | 0.00489 | < 0.00325 | 0.0042 | 0.0108 | < 0.00325 | < 0.00325 | 0.00577 | 0.0064 |
| O=C(Nc1cccc(Nc2ncc(Br)c(NCCc3cnc[nH]3)n2)c1)N1CCCC1 | 20.8 | 45.6 | 11.4 | 24.8 | 33.2 | > 61.4 | 56 | 21.3 | 45.8 | 9.06 | 3.72 | 3.2 | 1.27 | 2.41 | 7.14 | 9.02 | 11 | 2.98 | 13.4 | 1.61 |
| CC(=O)Oc1ccccc1C(=O)/C=C/c1cccc([N+](=O)[O-])c1 | 4.16 | 15.3 | 3.9 | > 100 | 14.9 | 15.3 | 4.99 | 19.6 | 2.96 | 3.48 | 1.88 | 3.69 | 1.87 | 3.15 | 2.95 | 4.43 | 2.29 | 5.09 | 1.52 | 1.88 |
| CCN1C(=O)N(CC)C2C1NN=c1s/c(=C3\C(=O)N(CCc4ccccc4)c4ccccc43)c(=O)n12 (stereo not given) | 7.75 | > 21.8 | > 100 | > 100 | 3.11 | 19.6 | – | 14.3 | > 35.2 | 1.01 | 0.363 | 0.415 | 0.492 | 1.49 | 0.65 | 0.845 | 0.767 | 0.794 | 1.03 | 0.262 |
| CCN(Cc1ccc(Cl)s1)c1ccc(CO)c(Cl)c1 | 15.9 | 49.4 | > 55.2 | > 75.1 | 34.6 | > 93.5 | > 100 | 42.1 | 20 | 14.6 | 0.352 | 12.7 | 0.506 | 21.5 | 2.27 | 20.7 | 4.68 | 3.2 | 1.12 | 2.1 |
| Cc1c(C2=C(c3cn(C)c4ccccc34)C(=O)NC2=O)c2ccccc2n1C | > 25 | > 25 | > 25 | > 25 | > 25 | > 25 | > 25 | > 25 | > 25 | 19.6 | 1.16 | 4.38 | 1.26 | 2.18 | 1.81 | > 25 | 4.57 | 13.2 | 1.74 | 1.38 |
| COc1cc2c(c(OC)c1OC)-c1ccc(SC)c(=O)cc1[C@@H](NC1OC(CO)C(O)C(O)C1O)CC2 (stereo not given in full) | > 100 | > 100 | > 100 | > 100 | > 100 | > 100 | > 100 | > 100 | > 100 | > 100 | 0.0338 | 0.0347 | 0.0294 | 0.0418 | 0.0727 | 0.0797 | 0.0744 | 0.0568 | 0.0864 | 0.0613 |
| N#CN1CC[C@H](C(=O)Nc2ncc(-c3ccncc3)s2)C1 | > 38.9 | 12.7 | 19.5 | 3.8 | > 83.2 | > 69.6 | > 100 | 3.44 | 0.758 | 0.242 | 0.226 | 0.0582 | 0.023 | < 0.01 | 0.101 | 0.415 | 0.0348 | 0.0269 | < 0.0188 | 0.0238 |
| BrCc1ccc(CBr)cc1 | 15.8 | – | 17.6 | – | 6.92 | 25.8 | 6.78 | > 35.4 | > 63.2 | 16.2 | 5.12 | 5.3 | 5.1 | 2.11 | 1.99 | 0.528 | 1.94 | 10.7 | 7.58 | 5.61 |
| CN(C)CC1CCCC1=O (stereo not given) | 35.8 | 22.6 | 0.517 | 0.875 | 0.373 | 50 | 7.08 | 11.7 | 22.9 | 6.63 | – | – | – | – | – | – | – | – | – | – |
| COc1ccc(C(=O)N2c3ccccc3Sc3ccccc32)c(OC)c1 | > 100 | > 100 | > 100 | > 100 | > 100 | > 100 | > 100 | > 100 | > 100 | > 100 | 0.484 | 0.43 | 0.412 | 0.447 | 0.573 | 0.551 | 0.726 | 0.776 | 0.739 | 0.413 |
| O=C(O)COc1c(Cl)cc(Cl)c2cccnc12 | > 100 | > 100 | > 100 | > 100 | > 100 | > 100 | > 100 | > 100 | > 100 | > 100 | – | – | – | – | – | – | – | – | – | – |
| CC1=CC(=O)C(O)C2(C)C1CC(O)C13COC4(C)C(OC(=O)C41)C(O)C23 (stereo not given) | 39.1 | > 100 | 89.9 | 7.34 | 54.4 | > 100 | 20.3 | 18.6 | 42.7 | 6.98 | 8.02 | 26.4 | 5.41 | 0.0398 | 10.4 | 7.94 | 4.75 | 4.8 | 10.7 | 1.36 |
| C#CCOc1cccc(Nc2ncnc3c(NC(=O)CCl)cccc23)c1 | 34.5 | 55.6 | 40.9 | 71.1 | 30.7 | > 100 | 37.8 | 47.9 | 39.2 | 68.4 | 17.4 | 22.8 | 20.3 | 14.4 | 15.8 | 33.9 | 18.1 | 18.3 | 15.5 | 27.3 |
| CC(C)(C)c1ccc(C(=O)Nc2sc3c(c2C(N)=O)CCC(=O)C3)cc1 | 2.73 | 1.48 | 1.28 | 3.45 | 1.38 | 1.94 | 1.1 | 1.86 | 1.46 | 1.94 | 1.21 | 0.188 | 0.187 | 0.705 | 0.348 | 0.457 | 0.352 | 0.423 | 0.425 | 0.426 |
| CN(CCCCCl)P(=O)(OCCS(=O)(=O)CC(NC(=O)CCC(N)C(=O)O)C(=O)NC(C(=O)O)c1ccccc1)OCC1OC(n2cc(F)c(=O)[nH]c2=O)CC1O (stereo not given) | > 53.8 | > 36.1 | > 64.4 | > 95.5 | 25.6 | > 100 | 14 | > 33.7 | > 81.2 | > 100 | 0.0368 | 0.882 | 1.28 | 0.274 | 0.0177 | 1.3 | < 0.01 | 0.27 | 0.0973 | 4 |
| c1ccc2c3c([nH]c2c1)C1CCCN1CC3 (stereo not given) | > 10 | > 10 | > 10 | > 10 | > 10 | > 10 | > 10 | > 10 | > 10 | > 10 | – | – | – | – | – | – | – | – | – | – |
| COc1ccc(C2[C@@H](Cl)C(=O)N2c2cc(OC)c(OC)c(OC)c2)cc1Cl (stereo not given in full) | 0.648 | > 100 | 65 | 50.5 | > 100 | > 100 | 49.1 | > 100 | 32.7 | 65.5 | 0.0411 | 0.0642 | 0.132 | 0.275 | 0.146 | 0.293 | 0.0798 | 0.428 | 1.09 | 0.0615 |
| N#Cc1c(N)[nH]c2ccc(Sc3ccccc3)cc12 | 4.96 | 15.8 | 16.9 | 11.2 | 9.27 | 17.2 | 16 | 10.3 | 13.9 | 5.48 | – | – | – | – | – | – | – | – | – | – |
| C[CH2][Pb]([CH2]C)([CH2]C)[O]C(=O)c1ccc2ccccc2n1 | > 10 | > 10 | > 10 | > 10 | > 10 | > 10 | > 10 | > 10 | > 10 | > 10 | > 10 | > 10 | > 10 | > 10 | > 10 | > 10 | > 10 | > 10 | > 10 | > 10 |
| CC1NC(=O)C(NC(=O)c2cnc3ccccc3n2)COC(=O)C(C(C)C)N(C)C(=O)C2CSSCC(C(=O)N(C)C(C(C)C)C(=O)OCC(NC(=O)c3cnc4ccccc4n3)C(=O)NC(C)C(=O)N2C)N(C)C1=O (stereo not given) (I: Quinoxaline2carbonyl-SA[NMeC][NMeV] / II: Quinoxaline2carbonyl-SA[NMeC][NMeV]; ester I:1-II:C, I:C-II:1; disulfide I:3-II:3; configuration not given here) | 16.9 | 1.68 | 2.98 | > 4.64 | > 48.7 | > 100 | 11.9 | < 0.0133 | – | < 0.01 | – | – | – | – | – | – | – | – | – | – |
